ChEMBL document CHEMBL1133487, “Synthesis and biological evaluation of 2,5-dihydropyrazol” (Bioorg Med Chem Lett, 2000)

Experiments:
[1] = target: Phosphodiesterase 4 (Homo sapiens, UniProt P27815+Q08499+Q07343+Q08493); test: Inhibitory potency against guinea pig ventricular phosphodiesterase 4; type: protein assay, Cavia porcellus; conditions: target entry is the homologue from another species
[2] = target: Phosphodiesterase 3 (Homo sapiens, UniProt Q14432+Q13370); test: Inhibitory potency against guinea pig ventricular phosphodiesterase 3; type: protein assay, Cavia porcellus; conditions: target entry is the homologue from another species
[3] = system: Canis familiaris; test: Minimum emetic dose in dogs after intravenous administration; type: functional, Canis lupus familiaris
[4] = system: Cavia porcellus; test: Inhibition of Eosinophilia after peroral administration at 10 mg/Kg compound in guinea pig; type: functional; conditions: po
[5] = system: Cavia porcellus; test: Inhibition of histamine induced bronchoconstriction in guinea pig after intravenous administration; type: functional
[6] = system: Canis familiaris; test: Minimum emetic dose in dogs after peroral administration; type: functional, Canis lupus familiaris

| IC50 [1] [µM] | IC50 [2] [µM] | Compound | Dose [3] [mg/kg] | inhibition in vivo at 10 mg/kg [4] [%] | ED50 [5] [mg/kg] | Dose [6] [mg/kg] |
| --- | --- | --- | --- | --- | --- | --- |
| 11 | > 20 | CCCCn1nc2c3ccccc3n(Cc3cccc([N+](=O)[O-])c3)cc-2c1=O | – | – | – | – |
| 6.4 | 120 | CCCCCn1nc2c3ccccc3n(Cc3ccccc3)cc-2c1=O | – | – | – | – |
| 160 | > 200 | CCCCn1nc2c3ccccc3n(CCc3ccccc3)cc-2c1=O | – | – | – | – |
| 3 | 10 | CCn1nc2c3ccccc3n(Cc3ccccc3)cc-2c1=O | – | – | – | – |
| 14 | 67 | Cn1nc2c3ccccc3n(Cc3ccccc3)cc-2c1=O | – | – | – | – |
| 18 | 68 | CCCCn1nc2c3ccccc3n(-c3ccccc3)cc-2c1=O | – | – | – | – |
| 2.1 | 31 | CCCCn1nc2c3ccccc3n(Cc3ccccc3)cc-2c1=O | >3 | 52 | > 0.1 | – |
| 12 | > 200 | CCCCn1nc2c3ccccc3n(Cc3cccc(N)c3)cc-2c1=O | – | – | – | – |
| 2.3 | > 20 | CCCCn1nc2c3ccccc3n(Cc3cccc(Cl)c3)cc-2c1=O | – | 53 | 0.062 | >10 |

The next lines start with the compound.

| Compound | IC50 [1] [µM] | IC50 [2] [µM] | Dose [3] [mg/kg] | inhibition in vivo at 10 mg/kg [4] [%] | ED50 [5] [mg/kg] | Dose [6] [mg/kg] |
| --- | --- | --- | --- | --- | --- | --- |
| O=c1c2cn(Cc3ccccc3)c3ccccc3c-2nn1C1CC2CCC1C2 (configuration not stated) | 1.4 | > 20 | – | – | – | – |
| O=c1c2cn(Cc3ccccc3)c3ccccc3c-2nn1C1CCCC1 | 0.7 | 26 | – | – | – | – |
| CCCCn1[nH]c2c(cnc3ccccc32)c1=O | 90 | 136 | – | – | – | – |
| CCCCn1nc2c3ccccc3n(CC3CCCCC3)cc-2c1=O | 0.7 | 111 | >1 | 60 | > 0.1 | – |
| O=c1c2cn(Cc3ccccc3)c3ccccc3c-2nn1CC1CCCCC1 | 24 | 102 | – | – | – | – |
| CC(C)(C)n1nc2c3ccccc3n(Cc3cccs3)cc-2c1=O | 0.8 | > 20 | – | – | – | – |
| O=c1c2cn(CC3CCCCC3)c3ccccc3c-2nn1C1CCCC1 | 0.4 | > 20 | – | – | – | – |
| O=c1c2cn(Cc3ccccc3)c3ccccc3c-2nn1CCc1ccccc1 | 10 | > 100 | – | – | – | – |
| O=c1c2cn(Cc3ccccc3)c3ccccc3c-2nn1Cc1ccccc1 | 7 | 25 | – | – | – | – |
| O=c1[nH]nc2c3ccccc3n(Cc3ccccc3)cc1-2 | 37 | 48 | – | – | – | – |
| CC(C)(C)n1nc2c3ccccc3n(Cc3ccccc3)cc-2c1=O | 2.1 | > 100 | – | 51 | – | >10 |
| O=c1c2cn(Cc3cccs3)c3ccccc3c-2nn1C1CCCC1 | 0.4 | > 20 | >3 | 62 | 0.083 | – |
| CC(C)(C)n1nc2c3ccccc3n(CC3CCCCC3)cc-2c1=O | 0.5 | > 20 | – | – | – | – |
| O=c1c2cn(Cc3ccccc3)c3ccccc3c-2nn1CC1CCC1 | 0.8 | > 200 | – | – | – | – |
| CC(C)n1nc2c3ccccc3n(Cc3ccccc3)cc-2c1=O | 1.2 | 86 | – | – | – | – |
| CCCCn1nc2c3ccccc3n(Cc3cccs3)cc-2c1=O | 2.7 | > 20 | – | 56 | 0.037 | >10 |
| CCn1c(=O)c2ccccc2n(-c2cccc([N+](=O)[O-])c2)c1=O [NITRAQUAZONE] | 0.05 | > 200 | – | – | – | – |
| COc1ccc(C2CNC(=O)C2)cc1OC1CCCC1 (configuration not stated) [ROLIPRAM] | – | – | 0.03 | 58 | 0.004 | – |
